The values below are quoted from earlier work in patent US20020066702A1, “Antibacterial and antibiofilm bonded permanent magnets” (priority 2000, published 2002).

The subject of data set [1] is human fibroblast. Conditions: 24 hours after a 15 minute exposure to 1% povidone-iodine, 3% hydrogen peroxide or 0.5% sodium hypochlorite.
Data set [2] deals with full thickness dermal wounds on the backs of rats. Conditions: eight days after initial irrigation with 1% povidone-iodine or 0.5% sodium hypochlorite.

As for `OO` [hydrogen peroxide], the fibroblast survival entry in data set [1] is “no fibroblasts survived”.
As to `OCl` [sodium hypochlorite], the re-epithelialization result in data set [2] is “substantially and statistically significantly inhibited”. Besides, the fibroblast survival entry in data set [1] is recorded as “no fibroblasts survived”.
Consider “polyvinylpyrrolidone-iodine complex [povidone-iodine]”, for which the re-epithelialization result in data set [2] is “substantially and statistically significantly inhibited”. In addition, the fibroblast survival entry in data set [1] is “no fibroblasts survived”.
